Key:
Assay type in all cases: in vivo
[1] = system: ryegrass, Italian (italian ryegrass, Lolium multiflorum); experiment: Test A postemergence application, visual injury rating 0-100
In short: (§1)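 Greenhouse test: loam/sand pots received a surfactant-containing formulation, as a preemergence directed soil spray or a postemergence spray on young plants. Injury was judged visually at day 10 relative to untreated controls.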

[2] = system: barnyardgrass (Echinochloa crus-galli); experiment: as above
In short: as §1

[3] = system: horseweed (Erigeron canadensis); experiment: as above
In short: as §1

[4] = system: oat, wild (wild oat, Avena fatua); experiment: as above
In short: as §1

[5] = system: wheat (Triticum aestivum); experiment: as above
In short: as §1

kochia (Bassia scoparia) [6] = experiment: as above
In short: as §1

corn (Zea mays) [7] = experiment: as above
In short: as §1

[8] = system: galium (catchweed bedstraw, Galium aparine); experiment: as above
In short: as §1

[9] = system: green foxtail (Setaria viridis); experiment: as above
In short: as §1

[10] = system: ragweed (common ragweed, Ambrosia artemisiifolia); experiment: as above
In short: as §1

soybean (Glycine max) [11] = experiment: as above
In short: as §1

[12] = system: palmer (palmer amaranth, palmer pigweed, Amaranthus palmeri); experiment: as above
In short: as §1

[13] = system: blackgrass (Alopecurus myosuroides); experiment: as above
In short: as §1

[14] = system: ducksalad (Heteranthera limosa); experiment: Test B flooded paddy test, visual plant response rating 0-100; details: 250 g ai/ha, Flood, applied to paddy water, evaluated after 13 days
In short: (§2)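 In this flooded assay, 2-leaf seedlings received compound through the water layer, kept at 3 cm over the soil. Plants were held 13 days in a greenhouse and then visually compared with control pots.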

[15] = system: barnyardgrass (Echinochloa crusgalli); experiment: as above; details: 250 g ai/ha, Flood, applied to paddy water, evaluated after 13 days
In short: as §2

[16] = system: sedge, umbrella (small-flower umbrella sedge, Cyperus difformis); experiment: as above; details: 250 g ai/ha, Flood, applied to paddy water, evaluated after 13 days
In short: as §2

rice (Oryza sativa) = experiment: as above; details: 250 g ai/ha, Flood, applied to paddy water, evaluated after 13 days
In short: as §2

[17] = system: ryegrass, Italian (italian ryegrass, Lolium multiflorum); experiment: Test A preemergence soil spray, visual injury rating 0-100; details: 10 days
In short: as §1

[18] = system: barnyardgrass (Echinochloa crus-galli); experiment: as above; details: 10 days
In short: as §1

[19] = system: oat, wild (wild oat, Avena fatua); experiment: as above; details: 10 days
In short: as §1

[20] = system: wheat (Triticum aestivum); experiment: as above; details: 10 days
In short: as §1

kochia (Bassia scoparia) [21] = experiment: as above; details: 10 days
In short: as §1

corn (Zea mays) [22] = experiment: as above; details: 10 days
In short: as §1

[23] = system: green foxtail (Setaria viridis); experiment: as above; details: 10 days
In short: as §1

[24] = system: ragweed (common ragweed, Ambrosia artemisiifolia); experiment: as above; details: 10 days
In short: as §1

soybean (Glycine max) [25] = experiment: as above; details: 10 days
In short: as §1

[26] = system: palmer (palmer amaranth, palmer pigweed, Amaranthus palmeri); experiment: as above; details: 10 days
In short: as §1

[27] = system: blackgrass (Alopecurus myosuroides); experiment: as above; details: 10 days
In short: as §1

[28] = 62 g ai/ha, postemergence, 10 days, 0 = no effect, 100 = complete control
[29] = Postemergence, 16 g ai/ha, greenhouse 10 days, 0 no effect, 100 complete control
[30] = 62 g ai/ha, 0 = no effect, 100 = complete control

## CC1(C(=O)NC2C=CC(C(=O)O)C2)CN(c2cc(Cl)c(F)c(Cl)c2)C(=O)O1 (stereo not shown) [Compound 124]
[1]; [28]
  Ryegrass, Italian plant response rating (0-100): 90
[1]; [29]
  Ryegrass, Italian plant response rating (0 to 100 scale): 30
[2]; [28]
  Barnyardgrass plant response rating (0-100): 90
[2]; [29]
  Barnyardgrass plant response rating (0 to 100 scale): 70
[3]; [28]
  Horseweed plant response rating (0-100): 60
[3]; [29]
  Horseweed plant response rating (0 to 100 scale): 0
[4]; [28]
  Oat, Wild plant response rating (0-100): 90
[4]; [29]
  Oat, Wild plant response rating (0 to 100 scale): 30
[5]; [28]
  Wheat plant response rating (0-100): 90
[5]; [29]
  Wheat plant response rating (0 to 100 scale): 80
Kochia (Bassia scoparia) [6]; [28]
  Kochia plant response rating (0-100): 90
Kochia (Bassia scoparia) [6]; [29]
  Kochia plant response rating (0 to 100 scale): 30
Corn (Zea mays) [7]; [28]
  Corn plant response rating (0-100): 100
Corn (Zea mays) [7]; [29]
  Corn plant response rating (0 to 100 scale): 60
[8]; [28]
  Galium plant response rating (0-100): 90
[8]; [29]
  Galium plant response rating (0 to 100 scale): 70
[9]; [28]
  Foxtail, Green plant response rating (0-100): 80
[9]; [29]
  Foxtail, Green plant response rating (0 to 100 scale): 10
[10]; [28]
  Ragweed plant response rating (0-100): 20
[10]; [29]
  Ragweed plant response rating (0 to 100 scale): 0
Soybean (Glycine max) [11]; [28]
  Soybean plant response rating (0-100): 70
Soybean (Glycine max) [11]; [29]
  Soybean plant response rating (0 to 100 scale): 40
[12]; [28]
  Pigweed, Palmer plant response rating (0-100): 70
[12]; [29]
  Pigweed, Palmer plant response rating (0 to 100 scale): 50
[13]; [28]
  Blackgrass plant response rating (0-100): 90
[13]; [29]
  Blackgrass plant response rating (0 to 100 scale): 80
[14]
  Plant response rating, Ducksalad (0 to 100 scale, 0 is no effect and 100 is complete control): 85
[15]
  Plant response rating, Barnyardgrass (0 to 100 scale, 0 is no effect and 100 is complete control): 10
[16]
  Plant response rating, Sedge, Umbrella (0 to 100 scale, 0 is no effect and 100 is complete control): 30
Rice (Oryza sativa)
  Plant response rating, Rice (0 to 100 scale, 0 is no effect and 100 is complete control): 15
[17]; 16 g ai/ha, 0 to 100 scale
  Ryegrass, Italian plant response rating: 0
[17]; [30]
  Ryegrass, Italian plant response rating (0-100): 70
[18]; 16 g ai/ha, 0 to 100 scale
  Barnyardgrass plant response rating: 0
[18]; [30]
  Barnyardgrass plant response rating (0-100): 40
[19]; 16 g ai/ha, 0 to 100 scale
  Oat, Wild plant response rating: 0
[19]; [30]
  Oat, Wild plant response rating (0-100): 30
[20]; 16 g ai/ha, 0 to 100 scale
  Wheat plant response rating: 20
[20]; [30]
  Wheat plant response rating (0-100): 90
Kochia (Bassia scoparia) [21]; 16 g ai/ha, 0 to 100 scale
  Kochia plant response rating: 0
Kochia (Bassia scoparia) [21]; [30]
  Kochia plant response rating (0-100): 10
Corn (Zea mays) [22]; 16 g ai/ha, 0 to 100 scale
  Corn plant response rating: 0
Corn (Zea mays) [22]; [30]
  Corn plant response rating (0-100): 50
[23]; 16 g ai/ha, 0 to 100 scale
  Foxtail, Green plant response rating: 0
[23]; [30]
  Foxtail, Green plant response rating (0-100): 80
[24]; 16 g ai/ha, 0 to 100 scale
  Ragweed plant response rating: 0
[24]; [30]
  Ragweed plant response rating (0-100): 0
Soybean (Glycine max) [25]; 16 g ai/ha, 0 to 100 scale
  Soybean plant response rating: 0
Soybean (Glycine max) [25]; [30]
  Soybean plant response rating (0-100): 0
[26]; 16 g ai/ha, 0 to 100 scale
  Pigweed, Palmer plant response rating: 0
[26]; [30]
  Pigweed, Palmer plant response rating (0-100): 30
[27]; 16 g ai/ha, 0 to 100 scale
  Blackgrass plant response rating: 20
[27]; [30]
  Blackgrass plant response rating (0-100): 30

From US20260285850A1, “SUBSTITUTED OXAZOLIDINONES AND IMIDAZOLINONES AS HERBICIDES” (FMC CORPORATION, priority 2023, published 2026)
